Assay results reported in patent US20250388756A1, “NOVEL FLUORESCENT COMPOUND, AND LIPID BILAYER DYEING METHOD AND ENDOCYTOSIS DETECTION METHOD USING SAID COMPOUND” (DOJINDO LABORATORIES, priority 2020, published 2025).

What was measured:
HeLa cells [1] = assay: Cell staining test (confocal laser microscope); type: cell-based; details: FIG. 8
Description: HeLa cells were seeded onto μ-slide 8 well plates (ibidi) and cultured overnight in an incubator (37° C., 5% CO2, MEM medium (containing 10% fetal bovine serum and 1% penicillin/streptomycin)).

[2] = Effect of pH on fluorescence intensity; type: physicochemical; details: 1 μmol/L in 1:1 mixture of buffer (pH 7.4, 6.5, 4) and DMSO; FIG. 7
Description: Compound (3) was added to a 1:1 mixture of PBS (pH 7.4), Tris-HCl buffer (pH 6.5), phthalate buffer (pH 4) and DMSO to a final concentration of 1 μmol/L and the fluorescence spectrum was measured.

HeLa cells [3] = assay: Endosome staining test (confocal laser microscope); type: cell-based; details: endosomes enlarged by wortmannin 100 nM, 30 minutes at 37° C., FIG. 9
Description: HeLa cells were seeded on μ-slide 8 well plates (ibidi) and cultured overnight in an incubator (37° C., 5% CO2 presence, MEM medium (containing 10% fetal bovine serum and 1% penicillin/streptomycin)). The medium was removed and wortmannin (100 nM: a PI-3 kinase inhibitor that hypertrophies early endosomes) diluted in MEM medium Various fluorescent compounds (Compound (3), pHrodo Dex (Thermofisher), FM1-43 (Molecular Probe)) diluted with MEM medium were added and incubated for 30 minutes at 37° C. The supernatant was removed, and the cells were incubated at 37° C. for 30 minutes. The supernatant was removed, replaced with MEM medium and observed with a confocal laser microscope. In addition, instead of adding fluorescent compounds, the same experiment was performed using HeLa cells expressing Rab5-RFP (cDNA encoding a fusion protein in which a fluorescent protein is fused to an endosomal membrane-specific protein) before addition of wortmannin. The same experiments were also performed on the control group (CTRL) without adding wortmannin.

| Structure (SMILES) | localisation of fluorescent compound after leaving overnight (retention in cell membrane) (HeLa cells [1]) | change of fluorescence intensity with pH [2] | staining of endosomes (membrane versus contents) (HeLa cells [3]) |
| --- | --- | --- | --- |
| CCCCCN1C(=O)c2ccc3c4cccc5c(N6CCN(CCCS(=O)(=O)O)CC6)ccc(c6ccc(c2c36)C1=O)c54 [Compound (2)] | remained in the cell membrane |  |  |
| O=C1c2ccc3c4cccc5cccc(c6ccc(c2c36)C(=O)N1CCCS(=O)(=O)O)c54 [Compound (1)] | remained in the cell membrane |  |  |
| CCCCCN1C(=O)c2cccc3c(N4CCN(CCCS(=O)(=O)O)CC4)ccc(c23)C1=O [Compound (3)] |  | marked increase in fluorescence intensity was observed with decreasing pH | only the endosomal membrane was specifically stained |
